Key:
Experiment in all cases: relative viability (nuclei count vs DMSO), 5 days (fraction); higher = more cells survive
Dabrafenib + Crizotinib = compound: CC(C)(C)c1nc(-c2cccc(NS(=O)(=O)c3c(F)cccc3F)c2F)c(-c2ccnc(N)n2)s1 [Dabrafenib] + C[C@@H](Oc1cc(-c2cnn(C3CCNCC3)c2)cnc1N)c1c(Cl)ccc(F)c1Cl [Crizotinib] (partner 1 µM)
Method in brief: (§1)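 Relative viability was taken as the ratio of nuclei in treated wells to nuclei in vehicle wells. Lung cancer cell lines in 1536-well plates received compounds by pin tool one day after seeding, either one drug alone or a fixed anchor-drug dose plus five library-drug doses (not always all listed) in √10 steps. Nuclei were counted on 4× images after 5 days of treatment, and values are medians of duplicate plates.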

VX-702 + OSI-027 = compound: NC(=O)c1ccc(N(C(N)=O)c2c(F)cccc2F)nc1-c1ccc(F)cc1F [VX-702] + COc1cccc2cc(-c3nc([C@H]4CC[C@H](C(=O)O)CC4)n4ncnc(N)c34)[nH]c12 [OSI-027] (partner 0.5 µM)
Method in brief: as §1

Dabrafenib + Decitabine = compound: CC(C)(C)c1nc(-c2cccc(NS(=O)(=O)c3c(F)cccc3F)c2F)c(-c2ccnc(N)n2)s1 [Dabrafenib] + Nc1ncn([C@H]2C[C@H](O)[C@@H](CO)O2)c(=O)n1 [Decitabine] (partner 2 µM)
Method in brief: as §1

Dabrafenib + OSI-027 = compound: CC(C)(C)c1nc(-c2cccc(NS(=O)(=O)c3c(F)cccc3F)c2F)c(-c2ccnc(N)n2)s1 [Dabrafenib] + COc1cccc2cc(-c3nc([C@H]4CC[C@H](C(=O)O)CC4)n4ncnc(N)c34)[nH]c12 [OSI-027] (partner 0.5 µM)
Method in brief: as §1

| Cell Line | relative viability (Dabrafenib + Crizotinib; first compound 0.009487 µM) | relative viability (Dabrafenib + Crizotinib; first compound 0.03 µM) | relative viability (Dabrafenib + Crizotinib; first compound 0.09487 µM) | relative viability (Dabrafenib + Crizotinib; first compound 0.3 µM) | relative viability (VX-702 + OSI-027; first compound 0.02 µM) | relative viability (VX-702 + OSI-027; first compound 0.2 µM) | relative viability (VX-702 + OSI-027; first compound 0.6325 µM) | relative viability (VX-702 + OSI-027; first compound 2 µM) | relative viability (Dabrafenib + Decitabine; first compound 0.003 µM) | relative viability (Dabrafenib + Decitabine; first compound 0.009487 µM) | relative viability (Dabrafenib + Decitabine; first compound 0.03 µM) | relative viability (Dabrafenib + Decitabine; first compound 0.09487 µM) | relative viability (Dabrafenib + Decitabine; first compound 0.3 µM) | relative viability (Dabrafenib + OSI-027; first compound 0.003 µM) | relative viability (Dabrafenib + OSI-027; first compound 0.009487 µM) | relative viability (Dabrafenib + OSI-027; first compound 0.03 µM) | relative viability (Dabrafenib + OSI-027; first compound 0.09487 µM) | relative viability (Dabrafenib + OSI-027; first compound 0.3 µM) | relative viability (Dabrafenib + Crizotinib; first compound 0.003 µM) |
| --- | --- | --- | --- | --- | --- | --- | --- | --- | --- | --- | --- | --- | --- | --- | --- | --- | --- | --- | --- |
| HOP-62 | 0.807 | 1.05 | 0.913 | 0.805 | 0.88 | 0.859 | 0.831 | 0.982 | 0.216 | 0.183 | 0.221 | 0.188 | 0.217 | 0.354 | 0.841 | 0.778 | 0.631 | 0.557 |  |
| NCI-H1975 | 0.968 | 0.881 | 0.938 | 0.87 | 0.753 | 0.756 | 0.829 | 0.779 | 0.373 | 0.413 | 0.355 | 0.4 | 0.312 | 0.657 | 0.728 | 0.805 | 0.535 | 0.581 | 0.967 |
| NCI-H2085 | 0.881 | 0.838 | 0.919 | 0.873 | 0.87 | 0.636 | 0.726 | 0.627 | 0.552 | 0.575 | 0.559 | 0.592 | 0.518 | 0.355 | 1.06 | 0.675 | 0.616 | 0.859 | 0.97 |
| NCI-H460 | 0.97 | 0.892 | 0.842 | 0.899 | 0.712 | 0.644 | 0.693 | 0.55 | 0.588 | 0.486 | 0.457 | 0.463 | 0.129 | 0.641 | 0.651 | 0.629 | 0.591 | 0.534 | 0.865 |
| NCI-H1755 | 0.89 | 0.648 | 0.824 | 0.884 | 0.857 | 0.829 | 0.721 | 0.718 | 0.654 | 0.706 | 0.667 | 0.722 | 0.583 | 0.668 | 0.672 | 0.591 | 0.661 | 0.701 | 0.896 |
| PC-14 | 0.867 | 0.878 | 0.974 | 0.982 | 0.893 | 0.966 | 0.849 | 0.806 | 0.172 | 0.276 | 0.24 | 0.219 | 0.147 | 0.438 | 1.13 | 0.775 | 0.804 | 0.794 | 0.938 |
| 201T | 1.01 | 0.939 | 1.03 | 1.03 | 0.732 | 0.499 | 0.69 | 0.735 | 0.853 | 0.825 | 0.731 | 0.846 | 0.769 | 0.306 | 0.786 | 0.642 | 0.656 | 0.808 | 1.04 |
| COR-L 105 | 0.987 | 0.67 | 0.719 | 0.851 | 0.661 | 0.679 | 0.688 | 0.517 | 0.6 | 0.691 | 0.666 | 0.681 | 0.675 | 0.6 | 0.786 | 0.58 | 0.722 | 0.906 | 0.843 |
| A-427 | 0.883 | 0.772 | 0.87 | 1.03 | 0.4 | 0.447 | 0.427 | 0.352 | 0.569 | 0.562 | 0.569 | 0.551 | 0.504 |  | 0.351 | 0.518 | 0.379 | 0.474 |  |
| NCI-H1734 | 0.702 | 0.475 | 0.696 | 0.687 | 0.635 | 0.591 | 0.527 | 0.45 |  | 0.456 | 0.471 | 0.488 | 0.337 |  | 0.655 | 0.471 | 0.496 | 0.502 |  |
| NCI-H1944 | 1.09 | 1.05 | 0.971 | 1.03 | 0.396 | 0.398 | 0.39 | 0.206 | 0.45 | 0.46 | 0.436 | 0.467 | 0.364 | 0.356 | 0.433 | 0.39 | 0.505 | 0.439 | 1.13 |
| LOU-NH91 | 0.759 | 0.717 | 0.672 | 0.757 | 0.767 | 0.734 | 0.751 | 0.528 |  | 0.868 | 0.845 | 0.838 | 0.861 | 0.488 | 0.801 | 0.666 | 0.7 | 0.75 |  |
| NCI-H2009 | 1.01 | 1.02 | 0.697 | 0.662 | 0.688 | 0.88 | 0.774 | 0.801 | 0.359 | 0.38 | 0.397 | 0.339 | 0.358 | 0.423 | 0.617 | 0.321 | 0.249 | 0.251 | 0.973 |
| NCI-H1792 | 0.974 | 0.891 | 0.833 | 0.873 | 0.667 | 0.669 | 0.682 | 0.683 |  | 0.651 | 0.557 | 0.566 | 0.287 |  | 0.749 | 0.618 | 0.737 | 0.753 |  |
| HCC-15 | 0.881 | 0.832 | 0.75 | 0.827 | 0.659 | 0.661 | 0.69 | 0.702 | 0.586 | 0.677 | 0.665 | 0.669 | 0.636 | 0.547 | 0.695 | 0.67 | 0.53 | 0.622 | 0.906 |
| NCI-H727 | 1.01 | 0.791 | 0.909 | 0.84 | 0.721 | 0.614 | 0.543 | 0.642 | 0.53 | 0.8 |  | 0.877 | 0.818 |  | 0.395 | 0.677 | 0.568 | 0.643 |  |
| EPLC-272H | 1.17 | 0.784 | 0.976 | 0.83 | 0.298 | 0.304 | 0.279 | 0.248 |  | 0.393 | 0.367 | 0.365 | 0.442 | 0.234 | 0.371 | 0.31 | 0.258 | 0.249 |  |

— the supplement of paper PMC10307832
